# Measurements: ChEMBL document CHEMBL3045481, “Insecticide-induced resurgence of the whitebacked planthopper Sogatella furcifera (Horvath) (Hemiptera: Delphacidae) on rice varieties with different levels of resistance” (Crop Prot, 2011)
# Active and inactive are the calls of the source. No cut-off for these calls is given here.
# What was measured:
# [1] = test system: Sogatella furcifera; experiment: Insecticidal activity against Sogatella furcifera on insect-sensitive rice plant ARC6248 assessed as growth index at 0.0018% concentration (reference value: 2.38%); type: functional
# [2] = test system: Sogatella furcifera; experiment: Insecticidal activity against Sogatella furcifera on insect-resistanct rice plant PR116 assessed as growth index at 0.0018% concentration (reference value: 6.02%); type: functional
# [3] = test system: Sogatella furcifera; experiment: Insecticidal activity against Sogatella furcifera on insect-resistanct rice plant PR116 assessed as reproduction at 0.0018% concentration; type: functional, organism-based
# [4] = test system: Sogatella furcifera; experiment: Insecticidal activity against adult Sogatella furcifera on insect-sensitive rice plant ARC6248 assessed as high mortality at 0.0035% concentration; type: functional, organism-based
# [5] = test system: Sogatella furcifera; experiment: Insecticidal activity against adult Sogatella furcifera on insect-resistanct rice plant PR116 assessed as high mortality at 0.0035% concentration; type: functional, organism-based
# [6] = test system: Sogatella furcifera; experiment: Insecticidal activity against Sogatella furcifera on insect-sensitive rice plant ARC6248 assessed as resurgence ratio at 0.100% concentration; type: functional
# [7] = test system: Sogatella furcifera; experiment: Insecticidal activity against Sogatella furcifera on insect-resistanct rice plant PR116 assessed as resurgence ratio at 0.100% concentration; type: functional
# [8] = test system: Sogatella furcifera; experiment: Insecticidal activity against Sogatella furcifera on insect-sensitive rice plant ARC6248 assessed as reproduction at 0.0018% concentration; type: functional, organism-based
# [9] = test system: Sogatella furcifera; experiment: Insecticidal activity against Sogatella furcifera on insect-sensitive rice plant ARC6248 assessed as nymphal survival at 0.0018% concentration (reference value: 34.17%); type: functional
# [10] = test system: Sogatella furcifera; experiment: Insecticidal activity against Sogatella furcifera on insect-resistanct rice plant PR116 assessed as nymphal survival at 0.0018% concentration (reference value: 70.28%); type: functional
# [11] = test system: Sogatella furcifera; experiment: Insecticidal activity against Sogatella furcifera on insect-sensitive rice plant ARC6248 assessed as nymphal duration at 0.0018% concentration (reference value: 14.48 days); type: functional
# [12] = test system: Sogatella furcifera; experiment: Insecticidal activity against Sogatella furcifera on insect-resistanct rice plant PR116 assessed as nymphal duration at 0.0018% concentration (reference value: 11.75 days); type: functional
smiles,measurement,setting,value
O=[N+]([O-])/N=C1\NCCN1Cc1ccc(Cl)nc1 [IMIDACLOPRID],growth inhibition (GI),[1],2.48%
same,growth inhibition (GI),[2],5.91%
same,inhibition,[3],inactive
same,inhibition,[4],Active
same,inhibition,[5],Active
same,Ratio,[6],<1
same,Ratio,[7],<1
same,inhibition,[8],inactive
same,Survival,[9],35.56%
same,Survival,[10],69.72%
same,Time,[11],14.46 days
same,Time,[12],11.85 days
